Test results reported in US20110160167A1, “Steroid Derivatives Acting As Glucocorticosteroid Receptor Agonists” (AstraZeneca AB, priority 2007, published 2011).

Biological target: T1, recombinant human GR (Homo sapiens, UniProt P04150)
T1 construct: purchased Panvera/Invitrogen P2812 (kit P2893)
T1 sequence (P04150 1-777): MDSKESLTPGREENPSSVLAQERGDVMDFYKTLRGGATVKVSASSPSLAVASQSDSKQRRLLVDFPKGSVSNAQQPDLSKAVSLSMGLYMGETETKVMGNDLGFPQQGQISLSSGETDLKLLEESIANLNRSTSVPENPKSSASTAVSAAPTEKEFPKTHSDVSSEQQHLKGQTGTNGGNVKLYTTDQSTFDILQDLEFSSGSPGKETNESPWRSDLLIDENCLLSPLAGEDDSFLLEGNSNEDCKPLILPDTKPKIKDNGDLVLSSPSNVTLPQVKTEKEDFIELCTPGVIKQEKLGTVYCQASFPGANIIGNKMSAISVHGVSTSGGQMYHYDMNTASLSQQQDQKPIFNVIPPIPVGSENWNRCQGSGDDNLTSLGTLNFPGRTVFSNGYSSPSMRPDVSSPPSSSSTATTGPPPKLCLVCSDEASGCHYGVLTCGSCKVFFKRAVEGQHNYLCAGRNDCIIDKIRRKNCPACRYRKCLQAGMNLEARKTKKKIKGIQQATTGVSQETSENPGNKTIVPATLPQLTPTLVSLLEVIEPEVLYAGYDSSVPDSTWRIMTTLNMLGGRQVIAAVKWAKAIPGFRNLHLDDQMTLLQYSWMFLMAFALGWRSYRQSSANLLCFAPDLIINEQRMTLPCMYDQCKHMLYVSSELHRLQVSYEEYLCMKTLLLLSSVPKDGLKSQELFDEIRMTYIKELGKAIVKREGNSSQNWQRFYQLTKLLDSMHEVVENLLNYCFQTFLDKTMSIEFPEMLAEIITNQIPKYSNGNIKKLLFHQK
Test: Human Glucocorticoid Receptor (GR) Assay (fluorescence polarization, Panvera/Invitrogen kit)
Settings: GS Red tracer, 2 hours at room temperature, 100% control 10 μM Dexamethasone, read-out: Inhibition of GR binding, IC50
Method: Human Glucocorticoid Receptor (GR) Assay The assay is based on a commercial kit from Panvera/Invitrogen (Part number P2893). The assay technology is fluorescence polarization. The kit utilises recombinant human GR (Panvera, Part number P2812), a Fluoromone™ labelled tracer (GS Red, Panvera, Part number P2894) and a Stabilizing Peptide 10× (Panvera, Part number P2815). The GR and Stabilizing Peptide reagents are stored at −70° C. while the GS Red is stored at −20° C. Also included in the kit are 1M DTT (Panvera, Part number P2325, stored at −20° C.) and GR Screening buffer 10× (Panvera, Part number P2814, stored at −70° C. initially but once thawed stored at room temperature). Avoid repeated freeze/thaws for all reagents. The GR Screening buffer 10× comprises 100 mM potassium phosphate, 200 mM sodium molybdate, 1 mM EDTA and 20% DMSO. Test compounds (1 μL) and controls (1 μL) in 100% DMSO were added to black polystyrene 384-well plates (Greiner low volume black flat-bottom, part number 784076). 0% control was 100% DMSO and 100% control was 10 μM Dexamethasone. Background solution (8 μL; assay buffer 10×, Stabilizing Peptide, DTT and ice cold MQ water) was added to the background wells. GS Red solution (7 μL; assay buffer 10×, Stabilizing Peptide, DTT, GS Red and ice cold water) was added to all wells except background wells. GR solution (7 μL; assay buffer 10×, Stabilizing Peptide, DTT, GR and ice cold water) was added to all wells. The plate was sealed and incubated in a dark at room temperature for 2 hours. The plate was read in an Analyst plate reader (LJL Biosystems/Molecular Devices Corporation) or other similar plate reader capable of recording fluorescence polarization (excitation wavelength 530 nm, emission wavelength 590 nm and a dichroic mirror at 561 nm).

IC50	SMILES
76 nM	CCC[C@H]1O[C@@H]2C[C@H]3[C@@H]4CCC5=Cc6c(cnn6-c6ccc(F)c(CNCCCO)c6)C[C@]5(C)[C@H]4[C@@H](O)C[C@]3(C)[C@]2(C(=O)CO)O1 [Example 12, 1-[(4aR,4bS,5S,6aS,6bS, 8S,9aR,10aS,10bS)-1-(4-fluoro-3-{[(3-hydroxypropyl)amino]methyl}phenyl)-5-hydroxy-4a,6a-dimethyl-8-propyl-4,4a,4b,5,6,6a,9a,10, 10a,10b,11,12-dodecahydro[1,3]dioxolo [3′,4′]cyclopenta [1′,2′:5,6]naphtho[1,2-f]indazol-6b(1H)-yl]-2-hydroxyethanone trifluoroacetic acid]
12 nM	CCC[C@@H]1O[C@@H]2C[C@H]3[C@@H]4CCC5=Cc6c(cnn6-c6ccc(F)cc6)C[C@]5(C)[C@H]4[C@@H](O)C[C@]3(C)[C@]2(C(=O)SCC#N)O1 [Example 25, (4aR,4bS,5S,6aS,6bS,8R,9aR,10aS,10bS)-6b-(cyanomethylthiocarbonyl)-1-(4-fluorophenyl)-5-hydroxy-4a,6a-dimethyl-8-propyl-4,4a,4b,5,6,6a,9a,10,10a,10b,11,12-dodecahydro[1,3]dioxolo[3′,4′]cyclopenta[1′,2′:5,6]naphtho[1,2-f]indazol]
3.1 nM	CCC[C@@H]1O[C@@H]2C[C@H]3[C@@H]4CCC5=Cc6c(cnn6-c6ccc(F)c(CO)c6)C[C@]5(C)[C@H]4[C@@H](O)C[C@]3(C)[C@]2(C(=O)CO)O1 [Example 16, 1-[(4aR,4bS,5S,6aS,6bS,8R,9aR,10aS,10bS)-1-[4-Fluoro-3-(hydroxymethyl)phenyl]-5-hydroxy-4a,6a-dimethyl-8-propyl-4,4a,4b,5,6,6a,9a,10,10a,10b,11,12-dodecahydro[1,3]dioxolo[3′,4′]cyclopenta[1′,2′:5,6]naphtho[1,2-f]indazol-6b(1H)-yl]-2-hydroxyethanone]
67 nM	CCC[C@H]1O[C@@H]2C[C@H]3[C@@H]4CCC5=Cc6c(cnn6-c6ccc(F)c(CN7CCC(O)CC7)c6)C[C@]5(C)[C@H]4[C@@H](O)C[C@]3(C)[C@]2(C(=O)CO)O1 [Example 10, 1-[(4aR,4bS,5S,6aS,6bS, 8S,9aR,10aS,10bS)-1-{4-fluoro-3-[(4-hydroxypiperidin-1-yl)methyl]phenyl}-5-hydroxy-4a,6a-dimethyl-8-propyl-4,4a,4b,5,6,6a,9a,10, 10a,10b,11,12-dodecahydro[1,3]dioxolo [3′,4′]cyclopenta [1′,2′:5,6]naphtho[1,2-f]indazol-6b(1H)-yl]-2-hydroxyethanone trifluoroacetic acid]
77 nM	CCC[C@H]1O[C@@H]2C[C@H]3[C@@H]4CCC5=Cc6c(cnn6-c6ccc(F)c(CN7CCN(C)CC7)c6)C[C@]5(C)[C@H]4[C@@H](O)C[C@]3(C)[C@]2(C(=O)CO)O1 [Example 5, 1-[(4aR,4bS,5S,6aS,6bS, 8S,9aR,10aS,10bS)-1-{4-fluoro-3-[(4-methylpiperazin-1-yl)methyl]phenyl}-5-hydroxy-4a,6a-dimethyl-8-propyl-4,4a,4b,5,6,6a,9a,10, 10a,10b,11,12-dodecahydro[1,3]dioxolo [3′,4′]cyclopenta [1′,2′:5,6]naphtho[1,2-f]indazol-6b(1H)-yl]-2-hydroxyethanone trifluoroacetic acid]
42 nM	CCC[C@@H]1O[C@@H]2C[C@H]3[C@@H]4CCC5=Cc6c(cnn6-c6ccc(F)c(CNCCO)c6)C[C@]5(C)[C@H]4[C@@H](O)C[C@]3(C)[C@]2(C(=O)CO)O1 [Example 15, 1-[(4aR,4bS,5S,6aS,6bS, 8R,9aR,10aS,10bS)-1-(4-fluoro-3-{[(2-hydroxyethyl)amino]-methyl}phenyl)-5-hydroxy-4a,6a-dimethyl-8-propyl-4,4a, 4b,5,6,6a,9a,10,- 10a,10b,11,12-dodecahydro [1,3]dioxolo-[3′,4′]cyclopenta[1′,2′:5,6]naphtho[1,2-f]indazol-6b(1H)-yl]-2-hydroxyethanone trifluoroacetic acid]
5.9 nM	CCC[C@@H]1O[C@@H]2C[C@H]3[C@@H]4CCC5=Cc6c(cnn6-c6ccc(F)c(C(=O)OC)c6)C[C@]5(C)[C@H]4[C@@H](O)C[C@]3(C)[C@]2(C(=O)CO)O1 [Example 22, Methyl 2-fluoro-5-[(4aR,4bS,5S,6aS,6bS,8R,9aR,10aS,10bS)-6b-glycoloyl-5-hydroxy-4a,6a-dimethyl-8-propyl-4a,4b,5,6,6a,6b,9a,10,10a,10b,11,12-dodecahydro[1,3]dioxolo[3′,4′]cyclopenta[1′,2′:5,6]naphtho[1,2-f]indazol-1(4H)-yl]benzoate]
1.3 nM	CC1(C)O[C@@H]2C[C@H]3[C@@H]4CCC5=Cc6c(cnn6-c6ccc(F)cc6)C[C@]5(C)[C@H]4[C@@H](O)C[C@]3(C)[C@]2(C(=O)CO)O1 [Example 20, 1-[(4aR,4bS,5S,6aS,6bS,9aR,10aS,10bS)-1-(4-Fluorophenyl)-5-hydroxy-4a,6a,8,8-tetramethyl-4,4a,4b,5,6,6a,9a,10,10a,10b,11,12-dodecahydro[1,3]dioxolo-[3′,4′]cyclopenta[1′,2′:5,6]naphtho[1,2-f]indazol-6b(1H)-yl]-2-hydroxyethanone]
32 nM	CCC[C@@H]1O[C@@H]2C[C@H]3[C@@H]4CCC5=Cc6c(cnn6-c6ccc(F)c(CN7CCC(CO)CC7)c6)C[C@]5(C)[C@H]4[C@@H](O)C[C@]3(C)[C@]2(C(=O)CO)O1 [Example 13, 1-[(4aR,4bS,5S,6aS,6bS, 8R,9aR,10aS,10bS)-1-(4-fluoro-3-{[4-(hydroxymethyl)piperidin-1-yl]methyl}phenyl)-5-hydroxy-4a,6a-dimethyl-8-propyl-4,4a,4b,5,6,6a,9a,10, 10a,10b,11,12-dodecahydro[1,3]dioxolo [3′,4′]cyclopenta [1′,2′:5,6]naphtho[1,2-f]indazol-6b(1H)-yl]-2-hydroxyethanone trifluoroacetic acid]
5.5 nM	CC1(C)O[C@@H]2C[C@H]3[C@@H]4CCC5=Cc6c(cnn6-c6ccc(F)c(CO)c6)C[C@]5(C)[C@H]4[C@@H](O)C[C@]3(C)[C@]2(C(=O)CO)O1 [Example 21, 1-[(4aR,4bS,5S,6aS,6bS,9aR,10aS,10bS)-1-[4-Fluoro-3-(hydroxymethyl)phenyl]-5-hydroxy-4a,6a,8,8-tetramethyl-4,4a,4b,5,6,6a,9a,10,10a,10b,11,12-dodecahydro[1,3]dioxolo[3′,4′]cyclopenta[1′,2′:5,6]naphtho[1,2-f]indazol-6b(1H)-yl]-2-hydroxyethanone]
3.8 nM	CC1(C)O[C@@H]2C[C@H]3[C@@H]4C=CC5=Cc6c(cnn6-c6ccc(F)cc6)C[C@]5(C)[C@H]4[C@@H](O)C[C@]3(C)[C@]2(C(=O)CO)O1 [Example 24, 1-[(4aR,4bS,5S,6aS,6bS,9aR,10aS,10bS)-1-(4-Fluorophenyl)-5-hydroxy-4a,6a,8,8-tetramethyl-4,4a,4b,5,6,6a,9a,10,10a,10b-decahydro[1,3]dioxolo[3′,4′]cyclopenta-[1′,2′:5,6]naphtho[1,2-f]indazol-6b(1H)-yl]-2-hydroxyethanone]
